Measurements from patent publication US20200384053A1, “Ophthalmic Compositions and Medical Uses Thereof in Treatment of Myopia” (SunDragon Bio-medical Technology Co., priority 2019, published 2020).

Test system: Golden Syrian hamsters
Experiment: Monocular form deprivation (MFD) myopia animal model, axial length by A-scan ultrasonography
Format: in vivo
Conditions: after 21-day daily eye drop treatment
Procedure: 0.125% atropine eye drop was prepared under sterile conditions by dilution of 1% atropine ophthalmic solution with artificial tears (commercially available from Alcon Laboratories, Inc., Fort Worth, Tex., USA). The Extract A and/or Extract C were mixed with 5 ml artificial tears (commercially available from Alcon Laboratories, Inc., Fort Worth, Tex., USA) to reach a final concentration of 150 ng/ml by an oscillator.
3-week old Golden Syrian hamsters, each weighing 80 to 90 grams, were used for experiments. All animals were kept in a 12-hour light/dark cycle. All procedures were approved by the Institutional Animal Care and Use Committee of China Medical University and were conducted in accordance with the guidelines of the Use of Animals in Ophthalmic and Vision Research. Hamsters were raised with right eyelid fusion for 21 days. MFD was induced in the right eyes of the animals, with their left eyes serving as a control. The animals were randomly assigned to […] receiving daily applications of artificial tears or the eye drops prepared in Example 8, respectively, to both eyes. The treatment lasted for 21 days. The axial lengths of both eyes in each animal were measured on the 21st day following the start of the treatment by A-scan ultrasonography (PacScan 300 Plus, NY, USA).

SMILES: CN1[C@@H]2CC[C@H]1C[C@@H](OC(=O)C(CO)c1ccccc1)C2 (some centres unmarked) [Atropine, atropine]
- axial lengths of the non-MFD (left) eyes (Control 0.36±0.05 mm, differences not statistically significant): 0.33±0.03 mm
- axial lengths of the MFD (right) eyes (extracts 150 ng/ml, atropine 0.125%, Control 0.436±0.06 mm, p<0.05 vs Control): 0.358±0.01 mm
